Measurements published in patent publication US8969516B2, “Method of hydrolysis of peptide bond” (priority 2006, dated 2015).

Test: MALDI-TOF screening of Ni^2+ dependent hydrolysis in a combinatorial peptide library
Format: physicochemical
Conditions: Ni^2+ 2 mM, pH 8.2, 10 mM Tris, score=24/tm
How it was run: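 Sublibraries of Ac-Gly-Ala-Ser/Thr-X-His-Z-Lys-Phe-Leu-NH2, randomized at Z and fixed at X, were hydrolyzed at 1 mM total peptide with 2 mM Ni2+ in 10 mM Tris, pH 8.2, at 37 °C or 45 °C. Cleavage was scored visually in MALDI-TOF spectra at 2, 4, 6 and 8 h.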

[1] = CH3CO-Gly-Ala-Thr-X-His-Z-Lys-Phe-Leu-NH2 library, 37° C.
[2] = CH3CO-Gly-Ala-Thr-X-His-Z-Lys-Phe-Leu-NH2 library, 45° C.
[3] = CH3CO-Gly-Ala-Ser-X-His-Z-Lys-Phe-Leu-NH2 library, 37° C.
[4] = CH3CO-Gly-Ala-Ser-X-His-Z-Lys-Phe-Leu-NH2 library, 45° C.

| Substance | hydrolysis score from MALDI-TOF screening [1] | hydrolysis score from MALDI-TOF screening [2] | hydrolysis score from MALDI-TOF screening [3] | hydrolysis score from MALDI-TOF screening [4] |
| --- | --- | --- | --- | --- |
| Ac-GATTHDKFL-NH2 [TTHD] | 0 (a score of 0 if no trace of the product of hydrolysis was seen after 8 hours of incubation) | 0 (a score of 0 if no trace of the product of hydrolysis was seen after 8 hours of incubation) | – | – |
| Ac-GATFHQKFL-NH2 [TFHQ] | 0 (a score of 0 if no trace of the product of hydrolysis was seen after 8 hours of incubation) | 0 (a score of 0 if no trace of the product of hydrolysis was seen after 8 hours of incubation) | – | – |
| Ac-GASLHVKFL-NH2 [SLHV] | – | – | 0 (a score of 0 if no trace of the product of hydrolysis was seen after 8 hours of incubation) | 3 (a score of 3 for detection at 8 hours) |
| Ac-GATPHIKFL-NH2 [TPHI] | – | 0 (a score of 0 if no trace of the product of hydrolysis was seen after 8 hours of incubation) | – | – |
| Ac-GATQHWKFL-NH2 [TQHW] | 3 (a score of 3 for detection at 8 hours) | 4 (a score of 4 for detection at 6 hours) | – | – |
| Ac-GASTHWKFL-NH2 [STHW] | – | – | 4 (a score of 4 for detection at 6 hours) | 6 (a score of 6 for detection at 4 hours) |
| Ac-GASTHTKFL-NH2 [STHT] | – | – | 0 (a score of 0 if no trace of the product of hydrolysis was seen after 8 hours of incubation) | 0 (a score of 0 if no trace of the product of hydrolysis was seen after 8 hours of incubation) |
| Ac-GASFHWKFL-NH2 [SFHW] | – | – | 4 (a score of 4 for detection at 6 hours) | 6 (a score of 6 for detection at 4 hours) |
| Ac-GATNHFKFL-NH2 [TNHF] | 0 (a score of 0 if no trace of the product of hydrolysis was seen after 8 hours of incubation) | 0 (a score of 0 if no trace of the product of hydrolysis was seen after 8 hours of incubation) | – | – |
| Ac-GASTHPKFL-NH2 [STHP] | – | – | 0 (a score of 0 if no trace of the product of hydrolysis was seen after 8 hours of incubation) | 0 (a score of 0 if no trace of the product of hydrolysis was seen after 8 hours of incubation) |
| Ac-GATIHLKFL-NH2 [TIHL] | 0 (a score of 0 if no trace of the product of hydrolysis was seen after 8 hours of incubation) | 0 (a score of 0 if no trace of the product of hydrolysis was seen after 8 hours of incubation) | – | – |
| Ac-GASFHIKFL-NH2 [SFHI] | – | – | 4 (a score of 4 for detection at 6 hours) | 6 (a score of 6 for detection at 4 hours) |
| Ac-GASNHVKFL-NH2 [SNHV] | – | – | 3 (a score of 3 for detection at 8 hours) | 3 (a score of 3 for detection at 8 hours) |
| Ac-GATKHSKFL-NH2 [TKHS] | 0 (a score of 0 if no trace of the product of hydrolysis was seen after 8 hours of incubation) | 0 (a score of 0 if no trace of the product of hydrolysis was seen after 8 hours of incubation) | – | – |
| Ac-GATRHFKFL-NH2 [TRHF] | 3 (a score of 3 for detection at 8 hours) | 4 (a score of 4 for detection at 6 hours) | – | – |
| Ac-GASPHWKFL-NH2 [SPHW] | – | – | 0 (a score of 0 if no trace of the product of hydrolysis was seen after 8 hours of incubation) | 0 (a score of 0 if no trace of the product of hydrolysis was seen after 8 hours of incubation) |
| Ac-GASFHRKFL-NH2 [SFHR] | – | – | 4 (a score of 4 for detection at 6 hours) | 6 (a score of 6 for detection at 4 hours) |
| Ac-GASTHSKFL-NH2 [STHS] | – | – | 0 (a score of 0 if no trace of the product of hydrolysis was seen after 8 hours of incubation) | 0 (a score of 0 if no trace of the product of hydrolysis was seen after 8 hours of incubation) |
